# Measurements as given in US20240091242A1, “LIPIDS THAT REDUCE LUNG DAMAGE, IMPROVE PULMONARY FUNCTION AND DECREASE PRO-INFLAMMATORY CYTOKINES” (Signpath Pharma, Inc., priority 2021, published 2024).
# Tested on: pro-inflammatory cytokines in the BALF
# Assay: Multiplex analysis of cytokine levels in BALF, murine LPS ARDS model
# Assay type: in vivo, mouse
# Details: for IL1-alpha level in BALF / IP-10 level in BALF / MIG level in BALF: in pg/mL (unit assumed)
# Excerpt: C57B16/N mice were obtained from Charles River Laboratories (Montreal, Quebec). Male mice, 20-25 g of body weight, were used throughout the studies. Animals were housed in specific pathogen[…]free conditions, and all experiments were approved by Institutional Animal Care and Use Committee (IPST_SL20200402-1). Animal studies are reported in compliance with […] guidelines.
# All delivered mice were kept for one week as an acclimatization period prior to performing any experiments. Animals were housed in a maximum of two mice per cage under a 12[…]h light/12[…]h dark cycle at a temperature of ˜20-22° C. and 40-60% humidity. Food and water were available ad libitum. Each cage of mice was blindly assigned for different treatments or maintained as a control group according to the experimental design. The individual who carried out the experiments was not blinded as to treatment, but data analysis and experiments were otherwise blinded to avoid any bias.
# In the ARDS group, mice received Escherichia coli O111:B4 lipopolysaccharide (50 μg in 0.05 mL saline, i.t.), while, in the control group, the animals received an instillation of saline (0.05 mL, i.t.). For intratracheal instillation, mice were slightly anesthetized with isoflurane.
# The lipid SPPCT-800 was dissolved in water (low dose—2 mg/ml; high dose—20 mg/ml). For the 24-hour study, two treatment approaches were used. Mice received a single dose of SPPCT-800 (200 mg/kg, per gavage) as prevention (30 minutes before the LPS instillation), or as a single dose of either 20 mg/kg or 200 mg/kg as therapy (3-hour after the LPS instillation). For the 72-hour study, mice received a total of 8 treatments of SPPCT-800 (200 mg/kg) starting at 3-hour after the LPS instillation. Disease progression in mice was assessed by the evaluation of pulmonary functions, blood oxygen saturation, and body weight change. On the terminal day of each study (24 hours or 72 hours), measurement of cytokine levels in the plasma and BALF, and histopathology evaluations were done.
# Differential Cell Counts in BALF. The left lung was clamped while 0.9 mL of cold PBS 1×, Protease Inhibitor 1× (SigmaFast®) solution (3×300 μL) was injected so bronchoalveolar lavage fluid (BALF) from the right lobe of the lungs could be collected. The protein assay was performed according to the manufacturer's instruction BCA Protein Assay (Pierce™-#23227). Briefly, a dilution factor of 5 was used (1 part of BALF: 4 part of PBS 1×). 10 μL, of the diluted sample was added into the microplate wells. 200 μL of the working reagent was added into each well. The plate was covered, incubated at 37° C. for 30 minutes. After a cool-down period, the absorbance at 562 nm was rapidly measured using a monochromatic spectrophotometer (SpectraMAX ® plus—Molecular Devices). The total BALF protein content was reported by multiplying the protein concentration by the dilution factor, and then multiplying by the total of BALF volume collected.
# Multiplex analysis of mediators. The inventors quantified 31 different mediators in the BALF and plasma by using a Discovery Assay® (Mouse Cytokine and Chemokine Array 31-Plex (MD31), Eve Technologies Corp, Calgary, AB, Canada). The multiplex assay was performed at Eve Technologies using the Bio-Plex™ 200 system (Bio-Rad Laboratories, Inc., Hercules, CA, USA) and a Milliplex Mouse Cytokine/Chemokine kit (Millipore, St. Charles, MO, USA) according to Eve Tech protocol. The 31-plex consisted of Eotaxin, G-CSF, GM-CSF, IFN-γ, IL-1α, IL-1β, IL-2, IL-3, IL-4, IL-5, IL-6, IL-7, IL-9, IL-10, IL-12 (p40), IL-12 (p70), IL-13, IL-15, IL-17, IP-10, KC, LIF, MCP-1, M-CSF, MIG, MIP-1α, MIP-1β, MIP-2,RANTES, TNFα, and VEGF. The assay sensitivities of these markers range from 0.1 pg/mL to 33.3 pg/mL. Individual analytes' values and other assay details are available on Eve Technologies' website and in the Milliplex protocol.
# Statistical Analysis. Results are expressed as means±SEM. […]
# [1] = 24-hours, Pre: SPP4040 30 minutes before LPS
# [2] = 24-hours, Thera: SPP4040 3 hours after LPS
# [3] = 72-hours, Thera: eight SPP4040 injections over 72 hours after LPS
compound,measurement,setting,value
CCCCCCCCCCCCCC(=O)OCC(COP(=O)([O-])OCC(COC(=O)CCC)OC(=O)CCC)OC(=O)CCCCCCCCCCCCC.CCCCCCCCCCCCCC(=O)OCC(COP(=O)([O-])OCC(COC(=O)CCC)OC(=O)CCC)OC(=O)CCCCCCCCCCCCC.[Mg+2] (stereo not shown) [SPPCT-800],Eotaxin level in BALF,[1],10 ± 1
same,G-CSF level in BALF,[1],6468 ± 381
same,GM-CSF level in BALF,[1],26 ± 5
same,IFN gamma level in BALF,[1],2 ± 1
same,IL1-beta level in BALF,[1],69 ± 9
same,IL2 level in BALF,[1],1.5 ± 0.2
same,IL3 level in BALF,[1],0.4 ± 0.1
same,IL4 level in BALF,[1],0.08 ± 0.01
same,IL5 level in BALF,[1],10 ± 3
same,IL6 level in BALF,[1],856 ± 188
same,IL7 level in BALF,[1],1.7 ± 0.3
same,IL9 level in BALF,[1],7.0 ± 0.3
same,IL10 level in BALF,[1],1.4 ± 0.3
same,IL12 (p40) level in BALF,[1],1.6 ± 0.3
same,IL12 (p70) level in BALF,[1],7.4 ± 1.0
same,IL13 level in BALF,[1],0.7 ± 0.1
same,IL15 level in BALF,[1],5.1 ± 0.8
same,IL17 level in BALF,[1],8.3 ± 3.2
same,KC level in BALF,[1],622 ± 89
same,LIF level in BALF,[1],38 ± 8
same,LIX level in BALF,[1],94 ± 6
same,M-CSF level in BALF,[1],21 ± 3
same,MCP-1 level in BALF,[1],462 ± 103
same,MIP-1alpha level in BALF,[1],323 ± 52
same,MIP-1beta level in BALF,[1],801 ± 208
same,MIP-2 level in BALF,[1],771 ± 107
same,RANTES level in BALF,[1],45 ± 6
same,TNF-alpha level in BALF,[1],91 ± 32
same,VEGF level in BALF,[1],33 ± 2
same,IL1-alpha level in BALF,[1],183 ± 25
same,IP-10 level in BALF,[1],125 ± 10
same,MIG level in BALF,[1],6.8 ± 1.5
same,Eotaxin level in BALF,[2],14 ± 3
same,G-CSF level in BALF,[2],7060 ± 853
same,GM-CSF level in BALF,[2],46 ± 9
same,IFN gamma level in BALF,[2],3 ± 1
same,IL1-beta level in BALF,[2],103 ± 18
same,IL2 level in BALF,[2],1.5 ± 0.3
same,IL3 level in BALF,[2],0.5 ± 0.1
same,IL4 level in BALF,[2],0.10 ± 0.01
same,IL5 level in BALF,[2],10 ± 2
same,IL6 level in BALF,[2],850 ± 212
same,IL7 level in BALF,[2],1.7 ± 0.2
same,IL9 level in BALF,[2],8.8 ± 1.3
same,IL10 level in BALF,[2],1.4 ± 0.3
same,IL12 (p40) level in BALF,[2],2.0 ± 0.3
same,IL12 (p70) level in BALF,[2],6.0 ± 1.0
same,IL13 level in BALF,[2],1.1 ± 0.2
same,IL15 level in BALF,[2],3.1 ± 0.7
same,IL17 level in BALF,[2],13.6 ± 5.6
same,KC level in BALF,[2],1017 ± 140
same,LIF level in BALF,[2],39 ± 12
same,LIX level in BALF,[2],67 ± 20
same,M-CSF level in BALF,[2],27 ± 6
same,MCP-1 level in BALF,[2],494 ± 103
same,MIP-1alpha level in BALF,[2],564 ± 132
same,MIP-1beta level in BALF,[2],1924 ± 812
same,MIP-2 level in BALF,[2],1054 ± 106
same,RANTES level in BALF,[2],46 ± 6
same,TNF-alpha level in BALF,[2],153 ± 32
same,VEGF level in BALF,[2],34 ± 2
same,IL1-alpha level in BALF,[2],331 ± 67
same,IP-10 level in BALF,[2],163 ± 33
same,MIG level in BALF,[2],6.6 ± 2.0
same,TNF-α levels in the BALF (in words),"72-hour study, p=0.0613",markedly reduced
same,Eotaxin level in BALF,[3],6 ± 2
same,G-CSF level in BALF,[3],1233 ± 572
same,GM-CSF level in BALF,[3],9 ± 1
same,IFN gamma level in BALF,[3],12 ± 1
same,IL1-beta level in BALF,[3],89 ± 24
same,IL2 level in BALF,[3],1.7 ± 0.4
same,IL3 level in BALF,[3],0.5 ± 0.2
same,IL4 level in BALF,[3],0.24 ± 0.05
same,IL5 level in BALF,[3],0.4 ± 0.1
same,IL6 level in BALF,[3],276 ± 151
same,IL7 level in BALF,[3],2.0 ± 0.5
same,IL9 level in BALF,[3],8.5 ± 1.6
same,IL10 level in BALF,[3],1.1 ± 0.5
same,IL12 (p40) level in BALF,[3],6.0 ± 1.2
same,IL12 (p70) level in BALF,[3],15.7 ± 3.9
same,IL13 level in BALF,[3],1.1 ± 0.2
same,IL15 level in BALF,[3],4.8 ± 2.6
same,IL17 level in BALF,[3],53.2 ± 26.9
same,KC level in BALF,[3],216 ± 15
same,LIF level in BALF,[3],11 ± 7
same,LIX level in BALF,[3],25 ± 18
same,M-CSF level in BALF,[3],11 ± 1
same,MCP-1 level in BALF,[3],84 ± 34
same,MIP-1alpha level in BALF,[3],1676 ± 554
same,MIP-1beta level in BALF,[3],1561 ± 440
same,MIP-2 level in BALF,[3],2649 ± 898
same,RANTES level in BALF,[3],57 ± 20
same,TNF-alpha level in BALF,[3],62 ± 17
same,VEGF level in BALF,[3],11 ± 3
same,IL1-alpha level in BALF,[3],576 ± 169
same,IP-10 level in BALF,[3],1583 ± 385
same,MIG level in BALF,[3],749.7 ± 186.7
same,MIP-1α and MIP 1-β in the BALF (in words),at 24 hours,Suppressive effects
same,GM-CSF in the BALF (in words),"at 24 hours, 200 mg/kg preventive, 20 mg/kg therapeutic and 200 mg/kg therapeutic, P<0.001",highly significant depressions
same,IFN-γ levels in the BALF (in words),"at 24 hours, P<0.001",profoundly depressed
same,TNF-α in the BALF (in words),"at 24 hours, P=0.0959",markedly reduced
same,"IL-1β, IL-2, IL-3, IL-4, IL-5, IL-7, IL-9, IL-10, IL-12 (p40), IL-12 (p70), IL-13 and IL-15 in the BALF (in words)","at 24 hours, with the exception of IL-6",major reductions
same,IFN-γ levels in the BALF (in words),at 72 hours,Large reductions
same,MCP-1 in the BALF (in words),at 72 hours,inhibited
same,GM-CSF in the BALF (in words),"at 72 hours, P<0.001",significant decreases
same,"G-CSF, VEGF, KC, LIF, LIX and M-CSF in the BALF (in words)","mouse, in vivo",suppressed
